In patent US8377931B2, “Benzoxazine derivatives and uses thereof” (Roche Palo Alto LLC, priority 2002, dated 2013):
Where a name gives a salt, the structure may show the parent alone.

Compared with `Cc1cc(N2CCNCC2)c2c(c1)N(S(=O)(=O)c1ccc(Cl)cc1)CCO2` (as salt: hydrochloride), `O=S(=O)(c1ccccc1)N1CCOc2c(N3CCNCC3)cc(Cl)cc21` (as salt: hydrochloride) is higher in melting point: 147.9 to 152.9 °C for the first, 202 to 205 °C for the second.

Compound `CS(=O)(=O)Nc1cccc(S(=O)(=O)N2CCOc3c(N4CCNCC4)cccc32)c1` [Compound 20, N-[3-(8-Piperazin-1-yl-2,3-dihydro-benzo[1,4]oxazine-4-sulfonyl)-phenyl]-methanesulfonamide] has a melting point of 158.5 to 163.5 °C.
